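Method: 48-hour compound exposure of cells in 96-well plates, five concentrations, linear interpolation of endpoints. Abbreviation: GI50, concentration required for 50% inhibition of growth. At the TGI there is no net growth.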

Test systems include HCT-15 colon; SF-295 CNS; HL-60(TB) leukemia; ACHN renal; SF-268 CNS; U251 CNS; HT29 colon; OVCAR-5 ovarian; OVCAR-3 ovarian; HCT-116 colon.
Test in all cases: DTP human tumour cell line panel, 48 h

With `CP(=O)(O)C(N)c1ccccc1` (stereo not drawn), the TGI in the experiment on HCT-15 colon, in the experiment with SF-295 CNS, in the experiment on HL-60(TB) leukemia, in the experiment on ACHN renal, with SF-268 CNS and in the experiment on U251 CNS was above 100 µM each time. Further, the TGI in the experiment on HT29 colon, in the experiment on OVCAR-5 ovarian, in the experiment with OVCAR-3 ovarian and in the experiment with HCT-116 colon was above 100 µM each time.
With `CN(C)C=Nc1c2c(nc3ccccc13)CCCC2`, the TGI with HCT-15 colon, with SF-295 CNS, with HL-60(TB) leukemia, in the experiment on ACHN renal, in the experiment with SF-268 CNS and in the experiment on U251 CNS was above 100 µM each time. Further, the TGI with HT29 colon, in the experiment on OVCAR-5 ovarian, with OVCAR-3 ovarian and in the experiment on HCT-116 colon was above 100 µM throughout.
In the case of `COc1cccc2c1C(=O)c1c(O)c3c(c(O)c1C2=O)CC(O)(C(C)=O)CC3O` (stereo not drawn), the TGI with HCT-15 colon was 39.8 µM; in the experiment on SF-295 CNS, 19.5 µM; with HL-60(TB) leukemia, 26.5 µM; in the experiment with SF-268 CNS, 31.9 µM; in the experiment with U251 CNS, 14.9 µM; in the experiment on HT29 colon it was 36.4 µM. Moreover, the TGI with OVCAR-5 ovarian turned out to be 24.1 µM; in the experiment with OVCAR-3 ovarian, 23.8 µM; in the experiment with HCT-116 colon it was 10.1 µM.
Consider `Nc1ccn(CCCC(c2ccccc2)P(=O)(O)O)c(=O)n1` (stereo not drawn), for which the TGI in the experiment with HCT-15 colon, in the experiment with SF-295 CNS, in the experiment on HL-60(TB) leukemia, with ACHN renal, in the experiment with SF-268 CNS and in the experiment with U251 CNS was above 100 µM throughout. In addition, the TGI in the experiment with HT29 colon, in the experiment with OVCAR-5 ovarian, in the experiment with OVCAR-3 ovarian and in the experiment on HCT-116 colon was above 100 µM in each case.
As to `Cc1ccc(Cc2n[nH]c(=O)n2N2C(=O)c3ccccc3C2=O)cc1`, the TGI in the experiment on HCT-15 colon, with SF-295 CNS, in the experiment on ACHN renal, in the experiment on U251 CNS, in the experiment with HT29 colon and in the experiment on OVCAR-5 ovarian was above 100 µM throughout. In addition, the TGI in the experiment on OVCAR-3 ovarian and with HCT-116 colon was above 100 µM throughout.
In the case of `COc1ccc(C=NCCCN=Cc2ccc(OC)cc2O)c(O)c1`, the TGI in the experiment with HCT-15 colon was above 100 µM; with SF-295 CNS, 54.5 µM; in the experiment on HL-60(TB) leukemia, above 100 µM; in the experiment with ACHN renal, above 100 µM; with U251 CNS it was above 100 µM; with HT29 colon it was above 100 µM. Further, the TGI with OVCAR-5 ovarian was above 100 µM; in the experiment on OVCAR-3 ovarian, 51.2 µM; with HCT-116 colon, above 100 µM.
For the compound `CC1(C)OC2OC(C(=O)c3ccccc3)C3OC(C)(C)OC3C2O1` (stereo not drawn), the TGI in the experiment with HCT-15 colon, in the experiment with SF-295 CNS, in the experiment on HL-60(TB) leukemia, with ACHN renal, with SF-268 CNS and in the experiment on U251 CNS was above 100 µM each time. Moreover, the TGI with OVCAR-5 ovarian, with OVCAR-3 ovarian and in the experiment on HCT-116 colon was above 100 µM each time.
Take `COC(=O)C1Cc2c([nH]c3ccccc23)-c2[nH]c3ccccc3c2CC(NC(C)=O)C(=O)N2CCCC2C(=O)N1` (stereo not drawn): the TGI with HCT-15 colon, in the experiment with SF-295 CNS, in the experiment on ACHN renal, in the experiment with SF-268 CNS, in the experiment on U251 CNS and in the experiment on HT29 colon was above 100 µM throughout. Besides, the TGI in the experiment on OVCAR-5 ovarian, with OVCAR-3 ovarian and with HCT-116 colon was above 100 µM throughout.
In the case of `CNC(=O)c1cc(Oc2cccc3nc(NC(=O)Nc4ccc(F)cc4F)ccc23)ccn1`, the figures for the GI50 in the experiment on HCT-15 colon, in the experiment on ACHN renal and with SF-268 CNS were 0.302 µM, 2.13 µM and 1.9 µM, respectively. Moreover, the TGI in the experiment with HCT-15 colon, with ACHN renal and in the experiment with SF-268 CNS was above 50 µM throughout.
Consider `Cc1ccc(S(=O)(=O)NCCCSCCO)cc1`, for which the TGI in the experiment on HCT-15 colon, in the experiment with SF-295 CNS, in the experiment with HL-60(TB) leukemia, in the experiment on ACHN renal, in the experiment on SF-268 CNS and in the experiment on U251 CNS was above 100 µM in each case. Moreover, the TGI with HT29 colon, in the experiment with OVCAR-3 ovarian and with HCT-116 colon was above 100 µM each time.
Regarding `CN1C(=O)[C@@H]2[C@@H]3c4ccccc4N[C@@H]3c3[nH]c4ccccc4c3[C@@H]2C1=O`, the TGI is 50.1 µM with HCT-15 colon; 47 µM in the experiment with SF-295 CNS; 49.9 µM in the experiment with ACHN renal; 92.6 µM in the experiment on SF-268 CNS; 66.3 µM in the experiment on U251 CNS; above 100 µM with HT29 colon. Further, the values for the TGI with OVCAR-5 ovarian, with OVCAR-3 ovarian and with HCT-116 colon were 64.2 µM, 40 µM and 74.9 µM, respectively.
For `C=C(C)[C@@H]1CCC2=C(CC[C@]3(C)[C@@H]([C@@H](CCC=C(C)C)C(=O)O)[C@H](O)C[C@@]23C)[C@@]1(C)CCC(=O)O`, the TGI with HCT-15 colon, in the experiment with SF-295 CNS, in the experiment on ACHN renal, in the experiment on SF-268 CNS, with U251 CNS and in the experiment with HT29 colon was above 100 µM each time. For the same compound, the TGI in the experiment on OVCAR-5 ovarian, with OVCAR-3 ovarian and in the experiment with HCT-116 colon was above 100 µM in each case.
Take `Cc1cc2c(cc1-c1cc3c(cc1C)C(C(C)C)=C(O)C(=O)/C3=C\Nc1ccccn1)/C(=C/Nc1ccccn1)C(=O)C(O)=C2C(C)C`: the TGI was above 100 µM in the experiment with HCT-15 colon; above 100 µM with SF-295 CNS; 99.2 µM in the experiment on HL-60(TB) leukemia; above 100 µM with ACHN renal; above 100 µM with SF-268 CNS; above 100 µM in the experiment with U251 CNS. Besides, the TGI in the experiment on OVCAR-5 ovarian, in the experiment with OVCAR-3 ovarian and with HCT-116 colon was above 100 µM in each case.
With `CCC1OC2C(CC=C(C)C)=C3OC(C)(O)C(C)(CC)C(=O)C3=C3OC(=O)C=C1C32` (stereo not drawn), the TGI in the experiment on HCT-15 colon was above 100 µM; in the experiment with SF-295 CNS, above 100 µM; in the experiment on ACHN renal, 94.6 µM; in the experiment with SF-268 CNS, above 100 µM; in the experiment on U251 CNS it was above 100 µM; in the experiment on OVCAR-5 ovarian it was above 100 µM. In the experiment on HCT-116 colon, this compound yielded a TGI of 36.9 µM.

The term TGI denotes the concentration at which net growth stops. A high value points to less potent growth arrest. What is called GI50 is the concentration that inhibits growth by half.

The values above are taken from PubChem BioAssay (NCI).
